Measurements reported in patent publication US20110033883A1, “IMAGING DYES AND USE THEREOF” (priority 2007, published 2011).
Ahx = NCCCCCC(=O)O

How the values were obtained:
[1] = system: human blood platelets; assay: Fluorescence microscopy of human blood platelets incubated with dye conjugates; type: cell-based
Procedure: Human Blood Platelets were supplied by Niamh Moran and Dermot Kenny and prepared as described Moran et al.
Fluorescence microscopy was performed on human blood platelets incubated in the presence of Ru-Ahx-R5 and Ru-Ahx-R8. […] The process is largely irreversible, removing and washing cells, and resuspending in buffer results in less than 20% loss of emission intensity from the cell. The fluorescence microscopy pictures show intense, long-lived luminescence originating from the platelet; the wavelength of which (around 620 nm) can be assigned to the Ruthenium centres.

[2] = system: human blood platelets; assay: Photobleaching under continuous irradiation at 458 nm of dye-labelled human blood platelets; type: cell-based; details: identical conditions
Description: Some of the advantages associated with the invention may include: • The dye conjugates described are long-lived and environmentally sensitive. The sensitivity of the dye conjugates can be tailored, e.g. to oxygen partial pressure, pH, water content etc., by altering the ligands and/or the metal ion of the dye conjugate. • Photobleaching: bleaching experiments, for example the data presented in FIG. 10, are a measure of the photostability of the dye conjugate under the types of continuous irradiation required for imaging. […] For example a ruthenium-polypyridyl complex covalently bound to an octa arginine peptide required approximately 20 minutes continuous irradiation for the dye to bleach to 50% of its initial intensity. […] The dye conjugates described herein provide a much greater acquisition time which is a significant advantage to the microscopist/microbiologist. • The synthetic yields for coupling of the Rupic unit to amine functionalities are high. The dye conjugates are functionalised with a single, accessible group, allowing unequivocal reaction with nucleophilic functions on peptides or proteins. […] The dye conjugates are easily synthetically modified to change colour, lifetime, and environmental sensitivity and are highly resistant to photobleaching.
FIG. 10 is a graph showing a photobleaching experiment. […]

[3] = system: Sp2/0-Ag 14 myeloma cells; assay: Sytox green counterstain for cell viability; type: cell-based, mouse; details: over 2 hours
Procedure: (§1) Sp2/0-Ag 14 myeloma cells (ATCC number CRL-1581™) were obtained from the ATCC Cell Biology Collection (United Kingdom). Cells were grown in Dulbecco's modified Eagle's medium (Sigma-Aldrich) supplemented with 10% foetal calf serum (Gibco Invitrogen) and 1% L-glutamine (Gibco Invitrogen) at 37° C. and 5% CO2. Cells were harvested after growing for 2 days. The viability was ensured by testing them in a trypan blue assay. In a usual sample less than 1% of the cells were dead. The growth medium was removed by centrifuging the cells at 2000 rpm for 2 min in an Eppendorff centrifuge, washed twice and resuspended in PBS buffer.
To identify where the Ru dye [Ru(bpy)2(PIC-arg8)]^2+ is localizing inside the cell, cells were counterstained with two commercial dyes. […] Both dyes can be excited with the 458 nm line of an argon ion laser used for excitation of the [Ru(bpy)2(pic-R8)]^n+ dye, however, their fluorescence is in the green (around 500 nm), and therefore could be easily spectrally separated from the fluorescence of the Ru complex. […]
The luminescence images of myeloma cells were recorded with a Zeiss LSM510 Meta confocal microscope, using a 63× oil immersion objective (NA 1.4). […] The luminescence from the Ru complexes was collected using a longpass filter at 560 nm. […]

[4] = system: Sp2/0-Ag 14 myeloma cells; assay: Confocal luminescence imaging, incorporation and localization in myeloma cells (DiOC6(3) counterstain); type: cell-based, mouse
Procedure: as §1
To identify where the Ru dye [Ru(bpy)2(PIC-arg8)]^2+ is localizing inside the cell, cells were counterstained with two commercial dyes. Sytox green (Invitrogen) which localizes inside the nucleus; and DiOC6(3) (3,3′-dihexyloxacarbocyanine iodide, Invitrogen) which selectively stains mitochondria and at higher concentration other internal membranes, such as the endoplasmatic reticulum, of living cells. Both dyes can be excited with the 458 nm line of an argon ion laser used for excitation of the [Ru(bpy)2(pic-R8)]^n+ dye, however, their fluorescence is in the green (around 500 nm), and therefore could be easily spectrally separated from the fluorescence of the Ru complex. […]
For the fluorescence and fluorescence lifetime experiments 100 μl aliquots of washed myeloma cells were resuspended in PBS buffer (pH 7.4) and incubated with the 3 μl of the Ru-octopeptide (1.2 mM), resulting in a final dye concentration of 3.5×10^−5 M.
The luminescence images of myeloma cells were recorded with a Zeiss LSM510 Meta confocal microscope, using a 63× oil immersion objective (NA 1.4). […] The luminescence from the Ru complexes was collected using a longpass filter at 560 nm. When Sytox green and/or DiOC6(3) were localised in the same cell, the luminescence from the Ru-dye was collected behind a 615 nm longpass filter, while the Sytox green and DiOC6(3) fluorescence was collected with a 465-510 nm bandpass filter in another channel, or by using the meta option of the instrument.

[Ru(bpy)2(PicH-R8)]^n+: ruthenium centre with two bipyridine ligands and one picH ligand; octaarginine coupled to pic carboxy end via Ahx spacer, amide linkage ({(Ru(bpy)2(picH))-Ahx}-RRRRRRRR-NH2; also: Ru(bpy)2 picH ruthenium complex attached via Ahx spacer)
loss of emission intensity from the cell after removing, washing and resuspending in buffer [1]: less than 20%
transport across the platelet membrane ([1]; fluorescence microscopy): transported through the cells membrane to accumulate intracellularly
continuous irradiation time for the dye to bleach to 50% of its initial intensity [2]: approximately 20 minutes
cell viability (Sytox green exclusion) [3]: did not kill the cells
incubation time after which dye localises in the nucleus [4]: > 40 min
time until penetration into the cells is complete ([4]; 3.5×10^−5 M dye): 15 to 20 min
preference for mitochondria (DiOC6(3) counterstain) ([4]; 20 mins incubation): no special preferences for mitochondria
